Measurements from ChEMBL document CHEMBL1150977, “A quantitative analysis of kinase inhibitor selectivity” (Nat Biotechnol, 2008).

Legend:
[1] = biological target: Platelet-derived growth factor receptor beta (Homo sapiens, UniProt P09619)
[2] = biological target: Dual specificity protein kinase CLK1 (Homo sapiens, UniProt P49759)
[3] = biological target: T1, Mitogen-activated protein kinase kinase kinase 5 (Homo sapiens, UniProt Q99683)
T1 sequence (Q99683 whole entry): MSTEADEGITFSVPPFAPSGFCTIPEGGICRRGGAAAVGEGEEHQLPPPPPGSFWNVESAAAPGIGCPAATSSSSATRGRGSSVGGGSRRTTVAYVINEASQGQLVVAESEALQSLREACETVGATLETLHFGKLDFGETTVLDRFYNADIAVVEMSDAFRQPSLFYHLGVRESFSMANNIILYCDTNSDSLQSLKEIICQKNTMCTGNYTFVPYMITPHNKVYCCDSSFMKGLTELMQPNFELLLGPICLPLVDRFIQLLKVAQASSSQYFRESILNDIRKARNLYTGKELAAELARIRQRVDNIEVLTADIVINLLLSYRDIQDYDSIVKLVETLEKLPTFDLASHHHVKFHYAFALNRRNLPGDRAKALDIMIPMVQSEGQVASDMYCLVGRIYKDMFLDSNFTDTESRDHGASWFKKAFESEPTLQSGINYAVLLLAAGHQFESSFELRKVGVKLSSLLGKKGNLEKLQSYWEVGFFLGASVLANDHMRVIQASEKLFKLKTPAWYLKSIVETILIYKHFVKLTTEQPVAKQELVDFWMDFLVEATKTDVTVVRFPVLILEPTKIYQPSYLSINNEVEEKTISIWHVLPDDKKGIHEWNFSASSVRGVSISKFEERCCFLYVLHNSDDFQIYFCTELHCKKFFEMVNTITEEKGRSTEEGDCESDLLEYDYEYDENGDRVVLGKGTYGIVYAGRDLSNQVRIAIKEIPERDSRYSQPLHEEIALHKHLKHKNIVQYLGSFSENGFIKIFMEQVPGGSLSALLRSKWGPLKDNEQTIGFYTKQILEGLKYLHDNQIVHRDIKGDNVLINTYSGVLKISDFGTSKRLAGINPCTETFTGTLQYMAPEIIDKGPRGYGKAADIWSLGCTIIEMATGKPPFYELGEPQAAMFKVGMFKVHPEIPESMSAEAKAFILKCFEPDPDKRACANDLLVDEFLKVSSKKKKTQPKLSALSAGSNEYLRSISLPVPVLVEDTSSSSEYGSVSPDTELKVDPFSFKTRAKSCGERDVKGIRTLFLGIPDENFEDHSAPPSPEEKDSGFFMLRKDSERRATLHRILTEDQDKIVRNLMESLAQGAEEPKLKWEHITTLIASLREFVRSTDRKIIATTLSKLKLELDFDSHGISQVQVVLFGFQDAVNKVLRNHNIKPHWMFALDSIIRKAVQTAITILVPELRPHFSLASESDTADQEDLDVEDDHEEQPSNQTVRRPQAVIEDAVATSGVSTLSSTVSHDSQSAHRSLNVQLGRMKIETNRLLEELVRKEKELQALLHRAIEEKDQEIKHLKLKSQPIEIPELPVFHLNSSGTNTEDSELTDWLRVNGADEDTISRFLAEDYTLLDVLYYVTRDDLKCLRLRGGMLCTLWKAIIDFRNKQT

[4] = biological target: T2, Serine/threonine-protein kinase BRSK2 (Homo sapiens, UniProt Q8IWQ3)
T2 sequence (Q8IWQ3 whole entry): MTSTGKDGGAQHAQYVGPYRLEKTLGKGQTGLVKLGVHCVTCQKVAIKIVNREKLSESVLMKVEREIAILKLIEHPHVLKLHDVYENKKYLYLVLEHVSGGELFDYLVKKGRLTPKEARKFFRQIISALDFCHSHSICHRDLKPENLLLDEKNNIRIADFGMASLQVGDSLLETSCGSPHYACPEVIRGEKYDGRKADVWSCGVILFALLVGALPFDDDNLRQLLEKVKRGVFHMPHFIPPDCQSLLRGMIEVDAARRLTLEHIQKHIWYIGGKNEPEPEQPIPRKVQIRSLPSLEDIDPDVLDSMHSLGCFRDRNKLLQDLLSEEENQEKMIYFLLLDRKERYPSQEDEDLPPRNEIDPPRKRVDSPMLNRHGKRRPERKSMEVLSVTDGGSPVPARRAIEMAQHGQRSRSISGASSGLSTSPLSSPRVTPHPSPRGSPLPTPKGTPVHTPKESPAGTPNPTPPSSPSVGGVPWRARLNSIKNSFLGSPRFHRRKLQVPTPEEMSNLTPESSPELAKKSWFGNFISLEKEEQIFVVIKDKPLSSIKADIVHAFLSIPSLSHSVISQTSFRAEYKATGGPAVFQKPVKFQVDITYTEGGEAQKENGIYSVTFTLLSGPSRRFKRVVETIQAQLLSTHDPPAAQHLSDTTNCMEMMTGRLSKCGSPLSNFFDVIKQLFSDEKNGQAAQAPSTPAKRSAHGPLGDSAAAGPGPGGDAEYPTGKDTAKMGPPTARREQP

[5] = biological target: Mitogen-activated protein kinase 10 (Homo sapiens, UniProt P53779)
Chain of Mitogen-activated protein kinase 10 (P53779 whole entry): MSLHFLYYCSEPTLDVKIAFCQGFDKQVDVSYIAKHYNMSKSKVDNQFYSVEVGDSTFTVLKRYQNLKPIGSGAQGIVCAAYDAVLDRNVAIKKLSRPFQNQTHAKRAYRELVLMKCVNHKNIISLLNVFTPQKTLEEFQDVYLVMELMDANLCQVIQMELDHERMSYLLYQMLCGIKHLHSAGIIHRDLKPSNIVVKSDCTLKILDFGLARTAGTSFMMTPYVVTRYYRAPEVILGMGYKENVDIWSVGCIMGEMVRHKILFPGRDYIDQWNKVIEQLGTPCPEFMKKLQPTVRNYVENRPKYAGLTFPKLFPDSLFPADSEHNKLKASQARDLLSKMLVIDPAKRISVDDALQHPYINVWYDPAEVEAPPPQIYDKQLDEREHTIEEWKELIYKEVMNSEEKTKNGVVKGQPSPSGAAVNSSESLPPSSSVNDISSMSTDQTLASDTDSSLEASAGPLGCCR

Chain of Dual specificity protein kinase CLK1 (P49759 whole entry): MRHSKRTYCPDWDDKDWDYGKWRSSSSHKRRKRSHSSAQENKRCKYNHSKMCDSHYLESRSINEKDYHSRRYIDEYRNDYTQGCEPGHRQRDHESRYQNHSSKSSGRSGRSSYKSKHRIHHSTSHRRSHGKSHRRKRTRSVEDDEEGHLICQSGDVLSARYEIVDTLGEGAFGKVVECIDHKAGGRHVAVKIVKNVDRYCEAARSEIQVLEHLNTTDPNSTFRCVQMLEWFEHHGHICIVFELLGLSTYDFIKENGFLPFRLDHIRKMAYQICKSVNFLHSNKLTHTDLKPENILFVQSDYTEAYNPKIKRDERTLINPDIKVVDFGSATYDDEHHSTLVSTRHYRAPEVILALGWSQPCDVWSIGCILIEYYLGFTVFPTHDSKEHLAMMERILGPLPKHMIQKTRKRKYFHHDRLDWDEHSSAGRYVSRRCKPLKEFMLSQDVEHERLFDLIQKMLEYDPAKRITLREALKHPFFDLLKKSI
Chain of Platelet-derived growth factor receptor beta (P09619 whole entry): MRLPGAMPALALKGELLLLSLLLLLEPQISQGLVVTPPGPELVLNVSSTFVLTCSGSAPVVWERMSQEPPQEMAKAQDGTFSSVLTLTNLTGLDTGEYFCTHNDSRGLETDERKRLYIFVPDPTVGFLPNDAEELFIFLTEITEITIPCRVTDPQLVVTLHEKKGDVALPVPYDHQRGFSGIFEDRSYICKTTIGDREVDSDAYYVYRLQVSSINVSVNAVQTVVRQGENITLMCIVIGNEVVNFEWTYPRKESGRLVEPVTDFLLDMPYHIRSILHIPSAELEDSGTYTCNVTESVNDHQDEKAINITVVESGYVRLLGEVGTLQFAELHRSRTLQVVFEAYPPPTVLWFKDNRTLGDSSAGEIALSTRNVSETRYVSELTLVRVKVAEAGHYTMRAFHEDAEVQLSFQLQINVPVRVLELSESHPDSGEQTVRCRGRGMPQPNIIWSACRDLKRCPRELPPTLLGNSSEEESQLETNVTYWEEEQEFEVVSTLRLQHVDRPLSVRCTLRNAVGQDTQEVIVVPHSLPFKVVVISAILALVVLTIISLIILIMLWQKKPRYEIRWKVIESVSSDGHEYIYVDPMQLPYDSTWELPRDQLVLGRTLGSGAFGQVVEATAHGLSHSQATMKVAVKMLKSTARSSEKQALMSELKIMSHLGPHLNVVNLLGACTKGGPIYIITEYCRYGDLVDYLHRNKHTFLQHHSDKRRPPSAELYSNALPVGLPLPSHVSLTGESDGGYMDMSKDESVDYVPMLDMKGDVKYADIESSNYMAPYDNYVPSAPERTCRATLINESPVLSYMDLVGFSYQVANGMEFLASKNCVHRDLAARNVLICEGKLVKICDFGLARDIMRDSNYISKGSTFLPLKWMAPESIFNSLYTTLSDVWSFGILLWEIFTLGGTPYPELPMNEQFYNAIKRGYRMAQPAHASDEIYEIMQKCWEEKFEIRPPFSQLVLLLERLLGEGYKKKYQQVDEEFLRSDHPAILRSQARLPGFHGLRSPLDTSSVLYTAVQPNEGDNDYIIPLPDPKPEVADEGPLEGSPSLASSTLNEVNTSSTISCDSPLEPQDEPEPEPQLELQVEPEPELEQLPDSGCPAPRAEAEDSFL

Row | Structure (SMILES) | Kd [1] | Kd [2] | Kd [3] | Kd [4] | Kd [5]
1 | COCC(=O)NC/C=C/c1ccc2ncnc(Nc3ccc(Oc4ccc(C)nc4)c(C)c3)c2c1 [CP-724714] | > 10 µM | > 10 µM | > 10 µM | > 10 µM | > 10 µM
2 | Nc1nc(Nc2ccc(S(N)(=O)=O)cc2)nn1C(=O)c1c(F)cccc1F [JNJ-7706621] | – | – | > 10 µM | 2.7 µM | –
3 | CCOc1cc2ncc(C#N)c(Nc3ccc(F)c(Cl)c3)c2cc1NC(=O)/C=C/CN(C)C [PELITINIB] | > 10 µM | – | > 10 µM | > 10 µM | > 10 µM
4 | Oc1ccc(-c2nc(-c3ccncc3)c(-c3ccc(F)cc3)[nH]2)cc1 [SB-202190] | > 10 µM | > 10 µM | > 10 µM | > 10 µM | 0.042 µM
5 | NC(=O)c1ccc(-c2nc(-c3ccc4c(c3)OCO4)c(-c3ccccn3)[nH]2)cc1 [SB-431542] | > 10 µM | > 10 µM | > 10 µM | > 10 µM | > 10 µM
